“Also recorded” adds a separate entry of the source.
How the values were obtained:
Type I GnRH receptor = target: T1, Type I GnRH receptor (Rattus norvegicus, UniProt P30969); assay: Inositol phosphate accumulation in SCL60 (HEK293) cells; format: cell-based; conditions: GnRH I 10 nM
T1 construct: expressed in transfected cells
T1 sequence (P30969 1-327): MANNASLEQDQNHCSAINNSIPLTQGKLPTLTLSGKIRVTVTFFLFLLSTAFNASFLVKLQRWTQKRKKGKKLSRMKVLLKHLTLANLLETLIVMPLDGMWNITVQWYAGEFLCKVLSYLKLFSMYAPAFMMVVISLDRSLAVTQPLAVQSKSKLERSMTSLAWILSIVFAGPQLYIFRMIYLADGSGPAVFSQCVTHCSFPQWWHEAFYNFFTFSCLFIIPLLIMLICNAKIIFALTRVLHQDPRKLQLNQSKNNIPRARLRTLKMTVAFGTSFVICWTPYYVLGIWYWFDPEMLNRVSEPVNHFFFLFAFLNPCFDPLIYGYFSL
Protocol: The histograms in panels a and b represent inositol phosphate accumulation data from HEK293 cells stably expressing the Type I GnRH receptor only (SCL60). […] In panels c and d, the liberated inositol phosphates generated were measured in the proto-gonadotrope cells (αT4) stably expressing the marmoset Type II GnRH receptor (designated αT4-II).
The ability of the four major agents under study at activating ectopically expressed Type I or Type II GnRHR were tested (FIG. 12). The classical signal transduction cascade activated by GnRHR stimulation is the Gαq-PLC-β cascade. Both Type I and II receptor can stimulate the Gαq-PLC type-G-protein and activate PLC-β which cleaves phosphatidylinositol bisphosphate (PIP2) into inositol trisphosphate (IP3), other lower inositol phosphates (IPn) and diacylglycerol (DAG). The major function of IP3 is to elevate intracellular Ca^2+ while DAG causes the activation of specific PKC (protein kinase C) isoforms.
Panels a and b of FIG. 12 depict the generation of free cytoplasmic ^3H-myo-inositols on the plasma membranes of HEK293 cells expressing the Type I GnRHR and of αT4 gonadotropes expressing the marmoset Type II GnRHR. Prior to agonist stimulation the respective cells were incubated in inositol-free growth media supplemented with 1 μCi/ml ^3H-myoinositol for 48 h. G protein coupled receptor (GPCR)-induced activation of PLC-β results in the cleavage of PIP2 (incorporating tritium ^3H) into free lower inositol phosphates (IPns).

JNK2 = assay: Phosphorylation of immunoprecipitated myc-JNK2 in JEG-3 cells; format: cell-based, human; conditions: for activation (phosphorylation) of myc-JNK2: 100 nM; for effect of PTX pre-incubation on JNK phosphorylation: ligand 100 nM, PTX 16 h 200 ng/ml
Protocol: The activation of two other forms of mitogen-activated protein kinase (MAPK) was studied in JEG-3 and BPH-1 cells by overexpressing myc-tagged constructs of JNK2 or p38α. Immunoprecipitation of these constructs after GnRHR-ligand stimulation of either cell line allowed the degree of kinase activation to be assessed using antisera specific for the active, phosphorylated, form of the kinase. […] In both panel a and b, the dose of GnRH I employed was 100 nM. The respective histograms in each panel represent the mean±s.e. mean of three experimental replicate time courses.
The inset immunoblots depict the phosphorylation status of the immunoprecipitated JNK2 increasing while the level of total unphosphorylated protein (detected with α-JNK antisera) remains unchanged. The histogram below depicts the mean±s.e. mean of three experimental replicates of the above western blot. Stimulation of BPH-1 cells with the same range of ligands (Panel b) yields a similar pattern of MAPK activation, but in this case p38α. […] The inset immunoblots depict an increasing phosphorylation of p38α with no increase in total p38α protein. The histograin below depicts the mean±s.e. mean of three experimental replicates of the above western blot.
Stimulation of JNK in JEG-3 cells and p38 in BPH-1 cells and its sensitivity to pre-exposure to PTX was assessed by measuring the degree of activating phosphorylation of immunoprecipitated myc-JNK2 or myc-p38α. Panel a depicts a representative western blot of immunoprecipitated myc-JNK2 from JEG-3 cells stimulated with either GnRH I (100 nM) or Ant 135-25 (100 nM). The phosphorylation status of JNK was elevated by GnRH I and Ant135-25 with no significant alteration in total immunoprecipitated JNK levels (assessed by immunoblot with α-myc antisera). […] The histograms in panels b and c depict the mean±s.e. mean of three experimental replicates of the above western blot (panel a) experiments. Panel d depicts an identical experiment to that in panel a except that it is the phosphorylation status of immunoprecipitated myc-p38α that is being measured. […] The histograms in panels e and f depict the mean±s.e. mean of three experimental replicates of the above western blot (panel d) experiments.
Thus it appears that the ability of the GnRH-induced stimulation of either JEG-3 or BPH-1 cells is not correlated to their anti-proliferative action. […] Using specific antisera against the kinase active form of ERK5 (or BMK) we observed no specific activation of this form of MAPK however using antisera specifically recognising the active forms of either c-Jun N-terminal kinase (JNK) or p38 MAPK we noted that in JEG-3 cells there was a potent, yet delayed GnRH-induced activation of JNK and a similarly slow inset activation of p38 in the BPH-1 cells. The level of activation of the endogenous stress-activated protein kinases (SAPKs) was relatively small but greater than the GnRH-activated ERK levels in these cells. To further investigate the validity of the observed SAPK activation we transfected the tumour cell lines with myc-tagged JNK2 or p38α MAPK isoforms, stimulated the cells with GnRH and then immunoprecipitated with anti-myc sera and western blotted the immunoprecipitates for total JNK/p38 protein and active JNK/p38. In FIG. 7 (panel a) GnRH causes a demonstrable, time-dependent and protracted activation of the immunoprecipitated JNK2. Activation of JNK2 typically only occurred after 30 minutes of GnRH I stimulation. […] As with the activation of the JNK in the JEG-3 cells there was a considerable delay in the onset of the p38 activation unlike the ERK signalling events that typically occur and peak within 20 minutes of GnRH ligand application (FIG. 7, panel b).

Row | Compound | agonistic activity: liberated inositol phosphates at Type I GnRH receptor (Type I GnRH receptor) | time to onset of JNK2 activation (JNK2) [min] | activation (phosphorylation) of myc-JNK2 (JNK2) | effect of PTX pre-incubation on JNK phosphorylation (JNK2) | agonistic activity: liberated inositol phosphates at Type I GnRH receptor (Type I GnRH receptor; listed as 135-25) | agonistic activity: liberated inositol phosphates at Type I GnRH receptor (Type I GnRH receptor; listed as Ant135-25) | agonistic activity: liberated inositol phosphates at Type I GnRH receptor (Type I GnRH receptor; listed as antagonist 135-25) | agonistic activity: liberated inositol phosphates at Type I GnRH receptor (Type I GnRH receptor; listed as 135-18) | agonistic activity: liberated inositol phosphates at Type I GnRH receptor (Type I GnRH receptor; listed as Ant135-18) | activation (phosphorylation) of myc-JNK2 (JNK2; listed as Ant135-18) | effect on GnRH I stimulation of JNK (JNK2; 20 μM SB203580, data not shown)
1 | GnRH I: Gonadotropin-Releasing Hormone, a decapeptide; the original form of GnRH, re-named GnRH I | yields an increase in free tritiated inositol phosphates; also recorded: significant increase in liberated inositol phosphates | > 30 | significant activation of the immunoprecipitated myc-JNK2; also recorded: can efficiently activate the myc-JNK2 construct | abolished with the PTX pre-incubation |  |  |  |  |  |  | 
2 | Ac-D-Nal(2)-D-4-ClPhe-D-Pal-Ser-1-MePal-D-IsopropylLys-Leu-IsopropylLys-Pro-D-AlaNH2 [Ant 135-25] | no classical agonistic activity is demonstrated |  | can efficiently activate the myc-JNK2 construct | abolished with the PTX pre-incubation | no IPn-generating capacity | demonstrate no partial agonistic activity | failed to generate significant free inositol phosphate |  |  |  | 
3 | Ac-D-Nal(2)-D-4-ClPhe-D-Pal-Ser-Ile-D-IsopropylLys-Leu-IsopropylLys-Pro-D -AlaNH2 [Ant 135-18] | little classical agonistic capacity |  | fails to efficiently activate JNK |  |  |  |  | no activation of the PLC-β signal at the Type I receptor evident | demonstrate no partial agonistic activity | dramatically lower efficacy than GnRH I or Ant 135-25 | 
4 | C[S+]([O-])c1ccc(-c2nc(-c3ccncc3)c(-c3ccc(F)cc3)[nH]2)cc1 (stereo not shown) [SB203580] |  |  |  |  |  |  |  |  |  |  | effectively abrogates the ability of GnRH I to stimulate JNK
